Where a name gives a salt, the structure may show the parent alone.
Molecular target: T1, human cloned 5-HT6 receptors (Homo sapiens, UniProt P50406)
T1 construct: expressed in transfected cells; host or cells: HeLa cells expressing cloned human 5-HT6 receptor (membranes)
Experiment: Cyclase assay (cAMP production in membranes of HeLa 5HT6 cells, 5-HT stimulated)
Type: biochemical
Settings: 5-HT at 4xEC50, functional Ki by Cheng-Prusoff, read-out: pKi values (converted)
Description: 0.5 μl of test compound in 100% dimethylsulfoxide (DMSO) was added to a white, solid 384 well assay plate (for dose response measurements the top of the concentration range is 7.5 μM final). 10 μl of washed membranes of HeLa 5HT6 cells (for preparation see WO 98/27081) in basic buffer (50 mM HEPES pH 7.4 (KOH), 10 mM MgCl2, 100 mM NaCl, 10 μM 3-isobutyl-1-methylxanthine (IBMX) (Sigma-Aldrich)) was added to all wells followed by 10 μl 2×ATP buffer (i.e. basic buffer containing 3 mM ATP) with 5-HT (at a concentration equivalent to a dose response of 4×EC50). The resultant mixture was then incubated at room temperature for 30-45 minutes to allow cAMP production. cAMP production was then measured using the DiscoveRX™ HitHunter™ chemiluminescence cAMP assay kit (DiscoveRx Corporation, 42501 Albrae Street, Fremont, Calif. 94538; Product Code: 90-0004L) or any other suitable cAMP measurement assay.
IC50 values were estimated from arbitrary designated unit (ADU) measurements from a Perkin Elmer Viewlux instrument using a four parameter logistic curve fit within EXCEL (Bowen, W. P. and Jerman, J. C. (1995), Nonlinear regression using spreadsheets. Trends in Pharmacol. Sci., 16, 413-417). Functional Ki values were calculated using the method of Cheng, Y. C. and Prussof, W. H. (Biochemical Pharmacol (1973) 22 3099-3108). plC50 and fpKi are the negative log 10 of the molar IC50 and functional Ki respectively.

T1 sequence (P50406 whole entry): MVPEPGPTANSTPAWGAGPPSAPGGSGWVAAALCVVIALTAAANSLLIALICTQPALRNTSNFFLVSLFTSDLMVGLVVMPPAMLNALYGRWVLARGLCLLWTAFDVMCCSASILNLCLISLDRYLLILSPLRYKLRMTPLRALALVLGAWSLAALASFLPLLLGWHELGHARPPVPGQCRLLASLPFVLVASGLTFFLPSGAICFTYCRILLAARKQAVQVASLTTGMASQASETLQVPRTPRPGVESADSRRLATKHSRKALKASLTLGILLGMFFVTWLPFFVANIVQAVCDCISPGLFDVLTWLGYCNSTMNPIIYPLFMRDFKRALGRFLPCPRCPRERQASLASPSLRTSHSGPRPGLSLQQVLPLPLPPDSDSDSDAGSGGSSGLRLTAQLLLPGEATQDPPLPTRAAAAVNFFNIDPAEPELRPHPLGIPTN

| Structure (SMILES) | Ki [nM] |
| --- | --- |
| O=S(=O)(c1ccc2c(ccn2C2CCNCC2)c1)c1ccccc1F [Example E14, 5-[(2-fluorophenyl)sulfonyl]-1-(4-piperidinyl)-1H-indole hydrochloride] | ≤ 10 |
| CCN1CCC(n2ccc3cc(S(=O)(=O)c4cccc(F)c4)ccc32)CC1 [Example E33, 1-(1-Ethyl-4-piperidinyl)-5-[(3-fluorophenyl)sulfonyl]-1H-indole hydrochloride] | ≤ 10 |
| O=S(=O)(c1ccccc1)c1ccc2c(c1)CCN2C1CCN2CCCC2C1 (stereo not drawn) [Example E6, 1-(Octahydro-7-indolizinyl)-5-(phenylsulfonyl)-2,3-dihydro-1H-indole hydrochloride] | ≤ 10 |
| N#Cc1ccccc1S(=O)(=O)c1ccc2c(c1)CCN2C1CCNCC1 [Example E20, 2-{[1-(4-Piperidinyl)-2,3-dihydro-1H-indol-5-yl]sulfonyl}-benzonitrile hydrochloride] | ≤ 10 |
| CN1CCC(N2CCc3cc(S(=O)(=O)c4ccc(F)cc4)ccc32)CC1 [Example E41, 5-[(4-Fluorophenyl)sulfonyl]-1-(1-methyl-4-piperidinyl)-2,3-dihydro-1H-indole hydrochloride] | ≤ 10 |
| O=S(=O)(c1ccccc1)c1cc(Cl)c2c(c1)CCN2C1CCNCC1 [Example E19a, 7-Chloro-5-(phenylsulfonyl)-1-(4-piperidinyl)-2,3-dihydro-1H-indole hydrochloride] | ≤ 10 |
| CN1CCC(N2CCc3cc(S(=O)(=O)c4ccc(F)c(F)c4)ccc32)CC1 [Example E59, 5-[(3,4-Difluorophenyl)sulfonyl]-1-(1-methyl-4-piperidinyl)-2,3-dihydro-1H-indole hydrochloride] | ≤ 10 |
| CCN1CCC(N2CCc3cc(S(=O)(=O)c4cccc(Cl)c4)ccc32)CC1 [Example E54, 5-[((3-Chlorophenyl)sulfonyl]-1-(1-ethyl-4-piperidinyl)-2,3-dihydro-1H-indole hydrochloride] | ≤ 10 |
| Cc1cccc(S(=O)(=O)c2ccc3c(c2)CCN3C2CCNCC2)c1 [Example E26, 5-[(3-Methylphenyl)sulfonyl]-1-(4-piperidinyl)-2,3-dihydro-1H-indole hydrochloride] | ≤ 10 |
| CN1CCC(N2CCc3cc(S(=O)(=O)c4cc(F)cc(F)c4)ccc32)CC1 [Example E50, 5-[(3,5-Difluorophenyl)sulfonyl]-1-(1-methyl-4-piperidinyl)-2,3-dihydro-1H-indole hydrochloride] | ≤ 10 |
| Cc1cn(C2CCNCC2)c2ccc(S(=O)(=O)c3ccccc3)cc12 [Example E65, 3-Methyl-5-(phenylsulfonyl)-1-(4-piperidinyl)-1H-indole hydrochloride] | ≤ 10 |
| CN1CCC(N2CCc3cc(S(=O)(=O)c4ccccc4)cc(Cl)c32)CC1 [Example E32, 7-Chloro-1-(1-methyl-4-piperidinyl)-5-(phenylsulfonyl)-2,3-dihydro-1H-indole hydrochloride] | ≤ 10 |
| CC(C)N1CCC(N2CCc3cc(S(=O)(=O)c4cc(F)ccc4F)ccc32)CC1 [Example E43, 5-[(2,5-Difluorophenyl)sulfonyl]-1-[1-(1-methylethyl)-4-piperidinyl]-2,3-dihydro-1H-indole hydrochloride] | ≤ 10 |
| CC(C)CN1CCC(N2CCc3cc(S(=O)(=O)c4ccccc4)ccc32)CC1 [Example E37, 1-[1-(2-Methylpropyl)-4-piperidinyl]-5-(phenylsulfonyl)-2,3-dihydro-1H-indole hydrochloride] | ≤ 10 |
| CN1CCC(N2CC(C)(C)c3cc(S(=O)(=O)c4ccccc4)ccc32)CC1 [Example E5, 3,3-Dimethyl-1-(1-methyl-4-piperidinyl)-5-(phenylsulfonyl)-2,3-dihydro-1H-indole hydrochloride] | < 316 |
| O=S(=O)(c1ccc2c(c1)CCN2C1CCNCC1)c1ccccc1Cl [Example E12, 5-[(2-Chlorophenyl)sulfonyl]-1-(4-piperidinyl)-2,3-dihydro-1H-indole hydrochloride] | ≤ 10 |
| CN1CCCC(N2CCc3cc(S(=O)(=O)c4ccccc4)ccc32)CC1 (stereo not drawn) [Example E31, 1-(1-Methylhexahydro-1H-azepin-4-yl)-5-(phenylsulfonyl)-2,3-dihydro-1H-indole hydrochloride] | ≤ 10 |
| CC(C)N1CCC(N2CCc3cc(S(=O)(=O)c4cc(F)cc(F)c4)ccc32)CC1 [Example E52, 5-[(3,5-Difluorophenyl)sulfonyl]-1-[1-(1-methylethyl)-4-piperidinyl)-2,3-dihydro-1H-indole hydrochloride] | ≤ 10 |

| Structure (SMILES) | Ki [nM] |
| --- | --- |
| CN1CCC(N2CCc3cc(S(=O)(=O)c4cccc(F)c4)ccc32)CC1 [Example E47, 5-[(3-Fluorophenyl)sulfonyl]-1-(1-methyl-4-piperidinyl)-2,3-dihydro-1H-indole hydrochloride] | ≤ 10 |
| COc1cccc(S(=O)(=O)c2ccc3c(c2)CCN3C2CCNCC2)c1 [Example E23, 5-{[3-(Methyloxy)phenyl]sulfonyl}-1-(4-piperidinyl)-2,3-dihydro-1H-indole hydrochloride] | ≤ 10 |
| CC(C)(C)CN1CCC(N2CCc3cc(S(=O)(=O)c4ccccc4)ccc32)CC1 [Example E38, 1-[1-(2,2-dimethylpropyl)-4-piperidinyl]-5-(phenylsulfonyl)-2,3-dihydro 1H-indole] | < 316 |
| O=S(=O)(c1ccccc1)c1ccc2c(ccn2C2CCNCC2)c1 [Example E1, 5-(Phenylsulfonyl)-1-(4-piperidinyl)-1H-indole hydrochloride] | ≤ 10 |
| O=S(=O)(c1cccc(F)c1)c1ccc2c(ccn2C2CCNCC2)c1 [Example E22, 5-[(3-Fluorophenyl)sulfonyl]-1-(4-piperidinyl)-1H-indole hydrochloride] | ≤ 10 |
| O=S(=O)(c1cccc(Cl)c1)c1ccc2c(c1)CCN2C1CCNCC1 [Example E24, 5-[(3-Chlorophenyl)sulfonyl]-1-(4-piperidinyl)-2,3-dihydro-1H-indole hydrochloride] | ≤ 10 |
| O=S(=O)(c1ccc2c(c1)CCN2C1CCNCC1)c1ccccc1F [Example E9, 5-[(2-Fluorophenyl)sulfonyl]-1-(4-piperidinyl)-2,3-dihydro-1H-indole hydrochloride] | ≤ 10 |
| CCCN1CCC(N2CCc3cc(S(=O)(=O)c4ccccc4F)ccc32)CC1 [Example E46, 5-[(2-Fluorophenyl)sulfonyl]-1-(1-propyl-4-piperidinyl)-2,3-dihydro-1H-indole hydrochloride] | ≤ 10 |
| CCCN1CCC(N2CCc3cc(S(=O)(=O)c4cc(F)ccc4F)ccc32)CC1 [Example E44, 5-[(2,5-Difluorophenyl)sulfonyl]-1-(1-propyl-4-piperidinyl)-2,3-dihydro-1H-indole hydrochloride] | ≤ 10 |
| O=S(=O)(c1ccc(F)cc1)c1ccc2c(c1)CCN2C1CCNCC1 [Example E15a, 5-[(4-Fluorophenyl)sulfonyl]-1-(4-piperidinyl)-2,3-dihydro-1H-indole hydrochloride] | ≤ 10 |
| O=S(=O)(c1ccccc1)c1cc(F)c2c(c1)CCN2C1CCNCC1 [Example E18a, 7-Fluoro-5-(phenylsulfonyl)-1-(4-piperidinyl)-2,3-dihydro-1H-indole hydrochloride] | ≤ 10 |
| CN1CCC(N2CCc3cc(S(=O)(=O)c4ccccc4Cl)ccc32)CC1 [Example E49, 5-[(2-Chlorophenyl)sulfonyl]-1-(1-methyl-4-piperidinyl)-2,3-dihydro-1H-indole hydrochloride] | ≤ 10 |
| CCCN1CCC(N2CCc3cc(S(=O)(=O)c4cccc(C)c4)ccc32)CC1 [Example E64, 5-[(3-Methylphenyl)sulfonyl]-1-(1-propyl-4-piperidinyl)-2,3-dihydro-1H-indole hydrochloride] | ≤ 10 |
| CC(C)N1CCC(N2CCc3cc(S(=O)(=O)c4ccccc4F)ccc32)CC1 [Example E45, 5-[(2-Fluorophenyl)sulfonyl]-1-[1-(1-methylethyl)-4-piperidinyl]-2,3-dihydro-1H-indole hydrochloride] | ≤ 10 |
| CCCN1CCC(N2CCc3cc(S(=O)(=O)c4cccc(F)c4)ccc32)CC1 [Example E56, 5-[(3-Fluorophenyl)sulfonyl]-1-(1-propyl-4-piperidinyl)-2,3-dihydro-1H-indole hydrochloride] | ≤ 10 |
| CN1CCC(N2CCc3cc(S(=O)(=O)c4ccccc4)ccc32)C1 (stereo not drawn) [Example E30, 1-(1-Methyl-3-pyrrolidinyl)-5-(phenylsulfonyl)-2,3-dihydro-1H-indole hydrochloride] | ≤ 10 |
| CCN1CCC(N2CCc3cc(S(=O)(=O)c4ccc(F)c(F)c4)ccc32)CC1 [Example E60, 5-[(3,4-Difluorophenyl)sulfonyl]-1-(1-ethyl-4-piperidinyl)-2,3-dihydro-1H-indole hydrochloride] | ≤ 10 |
| CCCN1CCC(N2CCc3cc(S(=O)(=O)c4cc(F)cc(F)c4)ccc32)CC1 [Example E34, 5-[(3,5-Difluorophenyl)sulfonyl]-1-(1-propyl-4-piperidinyl)-2,3-dihydro-1H-indole hydrochloride] | ≤ 10 |
